# Source: US7135303B2, “Regulators of type-1 tumor necrosis factor receptor and other cytokine receptor shedding” (The United States of America as represented by the …, priority 2000, dated 2006)
# Assays:
# Assay in all cases: ARTS-1 aminopeptidase activity assay (amide bond hydrolysis of amino acid p-nitroanilide substrates, absorbance at 380 nm)
# [1] = biological target: T1, recombinant GST-ARTS-1 fusion protein (Homo sapiens, UniProt Q9NZ08); format: biochemical; conditions: for Vmax: aa-pNA substrate 0.25 to 8 mM, 24 pmoles GST-ARTS-1, 50 mM Tris pH 7.5, room temperature, 1 hour; for Vmax / Km: Lineweaver-Burk; for kcat / Km: aa-pNA substrate with GST-ARTS-1; for aminopeptidase activity of recombinant GST-ARTS-1 against the amino acid substrate: acidic or basic amino acid p-nitroanilide substrates
# T1 construct: ARTS-1 extracellular domain (i.e., the ectodomain; amino acids 30–941) was PCR amplified; made in house
# Protocol: (§1) To accomplish this, commercially available amino acid p-nitroanilide substrates were incubated with purified GST-ARTS-1 fusion protein for 1 hour under conditions of linear enzyme activity over time. The rate of amide bond hydrolysis was determined by measuring the absorbance of the p-nitroaniline aminopeptidase reaction product at 380 nm. Each experimental point was run in triplicate and each determination utilized six concentrations of amino acid p-nitroanilide substrate. Kinetic constants were determined by Lineweaver-Burk analysis. Correlation coefficients for each line generated were greater than 0.997. Each amino acid p-nitroaniline substrate tested is shown in the left colurnr, along with its polar/non-polar/acidic/basic nature. Vmax is a measure of the theoretical enzyme maximal velocity, Km is the Michaelis-Menten constant for each ARTS-1/substrate combination, kcat is the first order rate constant (i.e., the turnover number) for the ARTS-1/substrate combination, and kcat/Km is the second order rate constant for the ARTS-1/substrate combination (i.e., a measure of overall catalytic efficiency).
# (§2) Aminopeptidase activity of the recombinant GST-ARTS-1 fusion protein was assessed by determination of the rate of amide bond hydrolysis of amino acid p-nitroanilide substrates (Bachem). Amino acid p-nitroanilides (final concentrations 0.25 to 8 mM) were incubated at room temperature with 24 pmoles of GST-ARTS-1 fusion protein in 200 μl of 50 mM Tris, pH 7.5 for 1 hour. Reactions were terminated by addition of 280 μl of 3M sodium acetate (pH 5.2). The rate of amide bond hydrolysis was determined by measuring the absorbance of p-nitroaniline at 380 nm (See, Table 3, supra). Spontaneous hydrolysis of the substrate was corrected for by subtracting the absorbance of control incubations which were terminated immediately. Kinetic constants were determined by Lineweaver-Burk analysis. Each experimental point was assayed in triplicate and each determination utilized six concentrations of each amino acid p-nitroanilide substrate. Correlation coefficients for each line generated were greater than 0.997.
# [2] = substrate: N[C@@H](Cc1ccccc1)C(=O)Nc1ccc([N+](=O)[O-])cc1; format: biochemical, human; conditions: other: aa-pNA substrate with GST-ARTS-1; Lineweaver-Burk
# Protocol: as §1, §2
# [3] = substrate: NCC(=O)Nc1ccc([N+](=O)[O-])cc1; format: biochemical, human; conditions: other: aa-pNA substrate with GST-ARTS-1; Lineweaver-Burk
# Protocol: as §1, §2
# [4] = substrate: CC[C@H](C)[C@H](N)C(=O)Nc1ccc([N+](=O)[O-])cc1; format: biochemical, human; conditions: other: aa-pNA substrate with GST-ARTS-1; Lineweaver-Burk
# Protocol: as §1, §2
Molecule,Vmax [1],kcat [1],aminopeptidase activity of recombinant GST-ARTS-1 against the amino acid substrate [1],Km [1],other results
"CC[C@H](C)[C@H](N)C(=O)Nc1ccc([N+](=O)[O-])cc1 [Ile, isoleucine p-nitroanilide]",5.81 ± 0.87 pmol/pmol/min,–,–,–,–
N[C@@H](Cc1cnc[nH]1)C(=O)Nc1ccc([N+](=O)[O-])cc1 [His],No Activity,No Activity,no activity,–,–
"NCC(=O)Nc1ccc([N+](=O)[O-])cc1 [Gly, glycine p-nitroanilide]",8.67 ± 0.05 pmol/pmol/min,–,–,–,–
CC(C)C[C@H](N)C(=O)Nc1ccc([N+](=O)[O-])cc1 [Leu],9.45 ± 0.43 pmol/pmol/min,15.75 ± 0.72 s^−1 × 10^−2,–,5.26 ± 0.25 mM,–
N=C(N)NCCC[C@H](N)C(=O)Nc1ccc([N+](=O)[O-])cc1 [Arg],No Activity,No Activity,no activity,–,–
N[C@@H](CC(=O)O)C(=O)Nc1ccc([N+](=O)[O-])cc1 [Asp],No Activity,No Activity,no activity,–,–
"N[C@@H](Cc1ccccc1)C(=O)Nc1ccc([N+](=O)[O-])cc1 [Phe, phenylalanine p-nitroanilide]",5.14 ± 0.04 pmol/pmol/min,–,–,–,–
O=C(Nc1ccc([N+](=O)[O-])cc1)[C@@H]1CCCN1 [Pro],5.29 ± 0.08 pmol/pmol/min,8.82 ± 0.13 s^−1 × 10^−2,–,4.68 ± 0.06 mM,–
NCCCC[C@H](N)C(=O)Nc1ccc([N+](=O)[O-])cc1 [Lys],No Activity,No Activity,no activity,–,–
C[C@H](N)C(=O)Nc1ccc([N+](=O)[O-])cc1 [Ala],26.18 ± 0.24 pmol/pmol/min,43.63 ± 0.40 s^−1 × 10^−2,–,16.8 ± 0.18 mM,–
N[C@@H](CCC(=O)O)C(=O)Nc1ccc([N+](=O)[O-])cc1 [Glu],No Activity,No Activity,no activity,–,–
N[C@@H](CS)C(=O)Nc1ccc([N+](=O)[O-])cc1 [Cys],8.95 ± 0.31 pmol/pmol/min,14.92 ± 0.52 s^−1 × 10^−2,–,4.57 ± 0.2 mM,–
CC(C)[C@H](N)C(=O)Nc1ccc([N+](=O)[O-])cc1 [Val],5.31 ± 0.31 pmol/pmol/min,8.85 ± 0.52 s^−1 × 10^−2,–,5.69 ± 0.26 mM,–
CSCC[C@H](N)C(=O)Nc1ccc([N+](=O)[O-])cc1 [Met],13.36 ± 0.75 pmol/pmol/min,22.27 ± 1.25 s^−1 × 10^−2,–,7.71 ± 0.43 mM,–
"recombinant GST-ARTS-1 fusion protein (Homo sapiens) (protein, ARTS-1 extracellular domain (i.e., the ectodomain; amino acids 30–941) was PCR amplified; made in house) SWCQSTEASPKRSDGTPFPWNKIRLPEYVIPVHYDLLIHANLTTLTFWGTTKVEITASQPTSTIILHSHHLQISRATLRKGAGERLSEEPLQVLEHPRQEQIALLAPEPLLVGLPYTVVIHYAGNLSETFHGFYKSTYRTKEGELRILASTQFEPTAARMAFPCFDEPAFKASFSIKIRREPRHLAISNMPLVKSVTVAEGLIEDHFDVTVKMSTYLVAFIISDFESVSKITKSGVKVSVYAVPDKINQADYALDAAVTLLEFYEDYFSIPYPLPKQDLAAIPDFQSGAMENWGLTTYRESALLFDAEKSSASSKLGITMTVAHELAHQWFGNLVTMEWWNDLWLNEGFAKFMEFVSVSVTHPELKVGDYFFGKCFDAMEVDALNSSHPVSTPVENPAQIREMFDDVSYDKGACILNMLREYLSADAFKSGIVQYLQKHSYKNTKNEDLWDSMASICPTDGVKGMDGFCSRSQHSSSSSHWHQEGVDVKTMMNTWTLQKGFPLITITVRGRNVHMKQEHYMKGSDGAPDTGYLWHVPLTFITSKSDMVHRFLLKTKTDVLILPEEVEWIKFNVGMNGYYIVHYEDDGWDSLTGLLKGTHTAVSSNDRASLINNAFQLVSIGKLSIEKALDLSLYLKHETEIMPVFQGLNELIPMYKLMEKRDMNEVETQFKAFLIRLLRDLIDKQTWTDEGSVSERMLRSQLLLLACVHNYQPCVQRAEGYFRKWKESNGNLSLPVDVTLAVFAVGAQSTEGWDFLYSKYQFSLSSTEKSQIEFALCRTQNKEKLQWLLDESFKGDKIKTQEFPQILTLIGRNPVGYPLAWQFLRKNWNKLVQKFELGSSSIAHMVMGTTNQFSTRTRLEEVKGFFSSLKENGSQLRCVQQTIETIEENIGWMDKNFDKIRVWLQSEKLERM",–,–,–,–,Km [2]: 1.66 ± 0.03 mM; kcat [2]: 0.0857 ± 0.0006 s⁻¹; kcat/Km [2]: 51.6 M⁻¹ s⁻¹; Km [3]: 3.67 ± 0.03 mM; kcat [3]: 0.1445 ± 0.0008 s⁻¹; kcat/Km [3]: 39.4 M⁻¹ s⁻¹; Km [4]: 1.67 ± 0.02 mM; kcat [4]: 0.0968 ± 0.0015 s⁻¹; kcat/Km [4]: 58 M⁻¹ s⁻¹
